Experiments:
Format in all cases: binding
[1] = biological target: T1, HsAFP1 (Heuchera sanguinea, UniProt P0C8Y5); assay: rELISA, immobilised lipid; details: 12.5 uM HsAFP1; pH 7.4; 37 C
T1 construct: mature plant defensin, recombinantly produced in Pichia pastoris and purified

[2] = biological target: T1, HsAFP1; assay: DSC of lipid vesicles (lipid phase transition); details: PC/PG/PA 75/15/10 vesicles, 0.5 mM; 40 uM HsAFP1; HEPES pH 7, low salt
[3] = biological target: T2, HsAFP1 (Heuchera sanguinea, UniProt P0C8Y5, H32A/R52A); assay: rELISA, immobilised lipid; details: 12.5 uM peptide; PBS-based blocking buffer pH 7.4; 37 C
T2 construct: mature plant defensin, recombinantly produced in Pichia pastoris and purified
T2 sequence (P0C8Y5 whole entry H32A/R52A): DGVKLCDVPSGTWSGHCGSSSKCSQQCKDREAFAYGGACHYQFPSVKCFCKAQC

T1 sequence (P0C8Y5 whole entry): as the sequence (P0C8Y5 whole entry H32A/R52A) above, with A32H, A52R counted along it

Molecule: methyl-PA
- % reduction of binding vs PA [1]: > 75%

Molecule: CCCCCCCCCCCCCC(=O)OC[C@H](COP(=O)(O)O)OC(=O)CCCCCCCCCCCCC [dimyristoylphosphatidic acid]
- DSC of lipid vesicles (lipid phase transition) [2]: HsAFP1 specifically interacted with vesicles containing PA

Molecule: phosphatidic acid
- % reduction of binding vs native HsAFP1 [3]: 77%

Reference: publication PMC5702387, “The Antifungal Plant Defensin HsAFP1 Is a Phosphatidic Acid-Interacting Peptide Inducing Membrane Permeabilization” (Frontiers in Microbiology, 2017)
